Reference: US20180092840A1, “ULTRASOUND-ENHANCED DRUG DELIVERY FOR TREATMENT OF ONYCHOMYCOSIS” (The George Washington University, priority 2016, published 2018)
Each block holds one compound with its values, some of them ahead of it.

Tests used:
[1] = diffusion cell test (Franz Diffusion Cell, spectrophotometry) of blue dye through nail with ultrasound; format: in vitro ADME, pig; settings: 5 min sonication, 60 min total, n=6
Procedure: A second set of experiments was conducted utilizing a diffusion cell system 500, as set forth in FIG. 5 (hereinafter, the “diffusion cell test”). As described more fully below, a diffusion cell 502 having a receiving compartment 504 containing a stir bar 506 were positioned at the bottom of the system 500. A sampling port 508 projected from a side of the receiving compartment 504 to collect liquids contained therein. A nail adapter 510 fitted with a nail 512 was positioned above the diffusion cell 502. A lid adapter 514 was positioned above the nail 512. The lid adapter 514 contained a donor compartment 516, which held the blue dye, as well as a thermocouple 518 and a transducer 520. The parameters of the diffusion cell test were the same as set forth above with respect to Example 1, except in this example, spectrophotometry and a Franz Diffusion Cell were used to measure how much of the blue dye compound permeated all the way through the nail from a donor compartment (filled with the dye) to a receiver compartment, using dilution at different ultrasound parameters.
The diffusion cell (commercially available from PermeGear, Inc., Hellertown, Pa., USA) was fit with a custom-made nail adapter to avoid leakage of dye around the nail and a lid adapter so that 50 mL of dye and the transducer could easily fit above the nail adapter, as illustrated in FIG. 5. The nail adapter was made from plastic that screws together tightly and secures to the diffusion cell using small metal clamps. The lid adapter was made from a plastic beaker and secured onto the top of the nail adapter using epoxy. During the experimentation, the receiver compartment of the diffusion cell was filled with saline solution and a magnetic stirring bar which was spun at 450 RPM to ensure the compartment was fully mixed. The entire diffusion cell was placed in a water bath at 37° C. The donor compartment was then filled with 50 mL of the previously-described blue dye. Before being placed in the donor compartment, the blue dye was maintained at room temperature for at least 20 minutes. The transducer was placed 85 mm from the nail (as opposed to 45 mm from the nail in the luminosity experiment). The nail was then sonicated for five (5) minutes.
After sonication, the diffusion cell experiment continued for another 55 minutes to allow the dye to travel through the entirety of the nail. The Control nails were not treated with any ultrasound and were exposed to the dye solution for 60 minutes. […]
After the completion of the experiment, 2 mL of solution was collected from the receiving compartment of the diffusion cell and its absorption was measured with the spectrophotometer (commercially available as UVmini-1240 from Shimadzu Scientific Instruments of Columbia, Md., USA) using saline as a base. […]

onychomycosis = settings: cited from earlier work; for side effects: onychomycosis treatment

increase in nail permeability vs Control ([1]; 1 MHz): 70.3%
increase in nail permeability vs Control ([1]; 400 kHz): 26.7%
increase in nail permeability vs Control ([1]; 600 kHz): 19.5%
increase in nail permeability vs Control ([1]; 800 kHz): 44.5%
Structure (SMILES): CCN(Cc1cccc(S(=O)(=O)[O-])c1)c1ccc(C(=C2C=CC(=[N+](CC)Cc3cccc(S(=O)(=O)[O-])c3)C=C2)c2ccccc2S(=O)(=O)[O-])cc1.[Na+].[Na+] [blue dye, FD&C Blue No. 1—Brilliant Blue FCF, E133]

Structure (SMILES): Cc1cc(C2CCCCC2)n(O)c(=O)c1 [ciclopirox]
cure rate (onychomycosis; nail polish form, after six (6) months of daily application): 36%
side effects (onychomycosis): only non-serious, infrequently reported side effects

Structure (SMILES): CN(C/C=C/C#CC(C)(C)C)Cc1cccc2ccccc12 [Terbinafine]
side effects (onychomycosis): elevated levels of liver enzymes and hepatitis
overall failure rate (onychomycosis; orally prescribed): greater than 30%
time to work (onychomycosis; orally prescribed): > 6 months

Structure (SMILES): C=C1CCN([C@H](C)[C@](O)(Cn2cncn2)c2ccc(F)cc2F)CC1 [Efinaconazole]
cure rate compared with Ciclopirox (onychomycosis; topical, applied for up to ten (10) months): slightly better cure rate
